{"source": "patent US4548818A", "about": "“Composition and methods for the treatment of chronic obstructive airway disease and cardiac disease using 3-alkylxanthines” (priority 1978, dated 1985)", "key": {"Guinea-pig trachea": {"system": "Guinea-pig trachea", "test": "Isolated guinea-pig trachea (relaxation of carbacholine-contracted tracheal muscle)", "settings": ">1 more potent than theophylline; for Guinea-Pig trachea Potency rations of theophylline: Table II, molar potency ratio from EC50 values (50% maximum response), theophylline = 1 by definition, carbacholine 0.1 μg/ml; for Guinea-pig Tracheal Preparation Potency: Table III, potency ratio from EC50 values, theophyllin = 1 by definition", "description": "Guinea-pigs of both sexes, weighing between 150 and 250 g, were killed by a blow on the head and bled. The trachea was removed and cut spirally yielding one or two preparations. The tracheal preparations were mounted in organ baths containing Krebs solution maintained at 37° C. and bubbled with carbogen (95% O2 +5% CO2). Isometric tension reflecting the activity in circular tracheal muscle was recorded by means of a force displacement transducer. Initial tension was set at 0.5 g which was the approximate basal tension kept during the experiment. Evaluation of relaxant effects was done when the preparations had contracted to a stable tension by the addition of carbacholine 0.1 μg/ml to the bath. […] After washing out the drugs the trachea resumed its basal tone and was left to stabilize for at least 15 min. before the next drug evaluation was performed. Between two evaluations of theophylline the effect of the test drug was examined and its EC50 value was compared with the mean of the previous and following EC50 values of theophylline.\n(§1) The left column lists molar potency ratios for bronchodilatation between theophylline and various xanthine compounds. Toxic symptoms occuring before death in mice receiving constant rate infusion of drug i.v. are accounted for in the middle column. […] The far right column indicates cardiotonic activity as positive chronotropic potency.\nThe guinea-pig trachea were prepared as was discribed previously. Isomeric tension reflecting the activity in circular tracheal muscle was recorded by a force displacement transducer."}, "Guinea-pig heart": {"system": "Guinea-pig heart", "test": "Isolated guinea-pig hearts (Langendorff), chronotropic potency", "settings": "Table II; positive chronotropic potency; theophylline = 1", "description": "From the bled guinea-pigs, the hearts were immediately removed and perfused with oxygenated Krebs solution at 37° according to Langendorff. The heart was mounted in a thermostatically controlled organ bath (25 ml) containing Krebs solution. A saline-filled, open-end polyethylene catheter was inserted into the right ventricle through the pulmonary artery. The catheter was fixed to the pulmonary artery by a ligature just above the valvular plane. It was connected to a pressure transducer (P23 AC), making it possible to record changes in intraventricular pressure. From these, the contraction frequency was obtained. Drugs were given as single bolus injections into the perfusion solution.\nas §1"}, "[1]": {"from_the_text": "as §1"}, "[2]": {"test": "Acute toxicity studies in mice (intravenous and oral)", "format": "in vivo, male NMRI mice", "settings": "i.v. or oral, observed 14 days", "description": "Male NMRI mice, weighing 20-26 g. starved for 6 h were used. The compounds, dissolved in 0.5M NaOH and 0.85% NaCl-solution (pH 10.6-12.1) were administered as follows:\n(a) intravenously, 0.1 ml/10 g at an injection rate of 0.3 ml per minute\nAt least seven dose levels, doses increasing in a geometric progression with a factor 1.2, were examined. Each dose was given to 5 animals. […] The position of extremities in dead animals indicated whether they had died in convulsions or not."}, "[3]": {"settings": "constant rate i.v. infusion, type of convulsion as in the effects column"}, "[4]": {"settings": "toxic symptoms before death, constant rate i.v. infusion"}}, "note": "Where two headings read alike, the source gives them in different places."}
{"smiles": "Cn1c(=O)c2c(ncn2C)n(C)c1=O", "note": "[Caffeine, caffeine, reference compound]", "values": [{"measurement": "Guinea-Pig trachea Potency rations of theophylline", "setting": "Guinea-pig trachea", "result": 1}, {"measurement": "Guinea-Pig heart Potency ratios of theophylline, Chronotrop", "setting": "Guinea-pig heart", "result": 0.5}, {"measurement": "Convulsion test mice i.v., Death", "setting": "[1]; constant rate i.v. infusion", "result": "391.7 ± 17.7", "unit": "mg/kg i.v."}, {"measurement": "Convulsion test mice i.v., number of animals with convulsions / animals tested", "setting": "[1]; [3]", "result": "20/20"}, {"measurement": "Convulsion test mice i.v., number of animals with convulsions / animals tested", "setting": "[1]; constant rate i.v. infusion, type of convulsion as in the effects column, listed as caffeine", "result": "20 out of 20"}, {"measurement": "Convulsion test mice i.v., Effects", "setting": "[1]; [4]", "result": "tonic conv."}, {"measurement": "Convulsion test mice i.v., Effects", "setting": "[1]; toxic symptoms before death, constant rate i.v. infusion, listed as caffeine", "result": "consistently produced tonic convulsions"}]}
{"smiles": "CC(C)(C)Cn1c(=O)[nH]c(=O)c2[nH]cnc21", "note": "[D 4034, 3,7-dihydro-3-(2,2-dimethylpropyl)-1H-purine-2,6-dione]", "values": [{"measurement": "Guinea-Pig trachea Potency rations of theophylline", "setting": "Guinea-pig trachea", "result": 3}, {"measurement": "Guinea-pig Tracheal Preparation Potency", "setting": "Guinea-pig trachea", "result": 3.0}, {"measurement": "Guinea-Pig heart Potency ratios of theophylline, Chronotrop", "setting": "Guinea-pig heart", "result": 3}, {"measurement": "Convulsion test mice i.v., Death", "setting": "[1]; constant rate i.v. infusion", "result": "519.1 ± 16.6", "unit": "mg/kg i.v."}]}
{"smiles": "Cc1nc2c([nH]1)c(=O)[nH]c(=O)n2CC(C)(C)C", "note": "[D 4070, 3,7-dihydro-3-(2,2-dimethylpropyl)-8-methyl-1H-purine-2,6-dione]", "values": [{"measurement": "Guinea-Pig trachea Potency rations of theophylline", "setting": "Guinea-pig trachea", "result": 1.8}, {"measurement": "Guinea-pig Tracheal Preparation Potency", "setting": "Guinea-pig trachea", "result": 1.8}, {"measurement": "Guinea-Pig heart Potency ratios of theophylline, Chronotrop", "setting": "Guinea-pig heart", "result": 1.5}, {"measurement": "Convulsion test mice i.v., Death", "setting": "[1]; constant rate i.v. infusion", "result": "693.3 ± 22.2", "unit": "mg/kg i.v."}, {"measurement": "Convulsion test mice i.v., Effects", "setting": "[1]; mouse, in vivo, iv", "result": "loss of balance"}]}
{"smiles": "O=c1[nH]c(=O)n(CCO)c2nc[nH]c12", "note": "[D 4077, reference compound]", "values": [{"measurement": "Guinea-pig Tracheal Preparation Potency", "setting": "Guinea-pig trachea", "result": 0.1}]}
{"smiles": "CC(O)Cn1c(=O)[nH]c(=O)c2[nH]cnc21", "note": "(stereo not drawn) [D 4083, reference compound]", "values": [{"measurement": "Guinea-pig Tracheal Preparation Potency", "setting": "Guinea-pig trachea", "result": 0.1}]}
{"smiles": "Cc1nc2c([nH]1)c(=O)[nH]c(=O)n2CC(C)O", "note": "(stereo not drawn) [D 4125, reference compound]", "values": [{"measurement": "Guinea-pig Tracheal Preparation Potency", "setting": "Guinea-pig trachea", "result": 0.4}]}
{"smiles": "O=c1[nH]c(=O)n(C2CCCC2)c2nc[nH]c12", "note": "[D 4132, 3-cyclopentyl-3,7-dihydro-1H-purine-2,6-dione]", "values": [{"measurement": "Guinea-Pig trachea Potency rations of theophylline", "setting": "Guinea-pig trachea", "result": 5.65}, {"measurement": "Guinea-Pig heart Potency ratios of theophylline, Chronotrop", "setting": "Guinea-pig heart", "result": 3.4}, {"measurement": "Convulsion test mice i.v., Death", "setting": "[1]; constant rate i.v. infusion", "result": "593 ± 21.9", "unit": "mg/kg i.v."}]}
{"smiles": "Cc1nc2c([nH]1)c(=O)[nH]c(=O)n2C1CCCC1", "note": "[D 4134, 3-cyclopentyl-3,7-dihydro-8-methyl-1H-purine-2,6-dione]", "values": [{"measurement": "Guinea-Pig trachea Potency rations of theophylline", "setting": "Guinea-pig trachea", "result": 5.85}]}
{"smiles": "Cc1nc2c([nH]1)c(=O)[nH]c(=O)n2CC1CCCCC1", "note": "[D 4137, 3,7-dihydro-8-methyl-3-cyclohexylmethyl-1H-purine-2,6-dione]", "values": [{"measurement": "Guinea-Pig trachea Potency rations of theophylline", "setting": "Guinea-pig trachea", "result": 4}, {"measurement": "Guinea-Pig heart Potency ratios of theophylline, Chronotrop", "setting": "Guinea-pig heart", "result": 10}, {"measurement": "Convulsion test mice i.v., Death", "setting": "[1]; constant rate i.v. infusion", "result": "493.1 ± 19.4", "unit": "mg/kg i.v."}]}
{"smiles": "O=c1[nH]c(=O)n(CC2CCCCC2)c2nc[nH]c12", "note": "[D 4138, 3,7-dihydro-3-cyclohexylmethyl-1H-purine-2,6-dione]", "values": [{"measurement": "Guinea-Pig trachea Potency rations of theophylline", "setting": "Guinea-pig trachea", "result": 5}, {"measurement": "Guinea-Pig heart Potency ratios of theophylline, Chronotrop", "setting": "Guinea-pig heart", "result": 15}, {"measurement": "Convulsion test mice i.v., Death", "setting": "[1]; constant rate i.v. infusion", "result": "543.6 ± 31.7", "unit": "mg/kg i.v."}]}
{"smiles": "O=c1[nH]c(=O)n(C2CC2)c2nc[nH]c12", "note": "[D 4161, 3-cyclopropyl-3,7-dihydro-1H-purine-2,6-dione]", "values": [{"measurement": "Guinea-Pig trachea Potency rations of theophylline", "setting": "Guinea-pig trachea", "result": 0.5}, {"measurement": "Convulsion test mice i.v., Death", "setting": "[1]; constant rate i.v. infusion", "result": "1030 ± 39.3", "unit": "mg/kg i.v."}, {"measurement": "Convulsion test mice i.v., number of animals with convulsions / animals tested", "setting": "[1]; mouse, in vivo, iv", "result": "1/10"}]}
{"smiles": "O=c1[nH]c(=O)n(C2CCC2)c2nc[nH]c12", "note": "[D 4164, 3-cyclobutyl-3,7-dihydro-1H-purine-2,6-dione]", "values": [{"measurement": "Guinea-Pig trachea Potency rations of theophylline", "setting": "Guinea-pig trachea", "result": 3.8}, {"measurement": "Guinea-Pig heart Potency ratios of theophylline, Chronotrop", "setting": "Guinea-pig heart", "result": 2.1}, {"measurement": "Convulsion test mice i.v., Death", "setting": "[1]; constant rate i.v. infusion", "result": "519.2 ± 16.86", "unit": "mg/kg i.v."}, {"measurement": "Convulsion test mice i.v., number of animals with convulsions / animals tested", "setting": "[1]; mouse, in vivo, iv", "result": "3/10"}]}
{"smiles": "Cc1nc2c([nH]1)c(=O)[nH]c(=O)n2CC(C)C", "note": "[D 4169, 3,7-dihydro-8-methyl-3-(2-methylpropyl)-1H-purine-2,6-dione]", "values": [{"measurement": "Guinea-pig Tracheal Preparation Potency", "setting": "Guinea-pig trachea", "result": 3.3}]}
{"smiles": "O=c1[nH]c(=O)n(CCCO)c2nc[nH]c12", "note": "[D 4184, reference compound]", "values": [{"measurement": "Guinea-pig Tracheal Preparation Potency", "setting": "Guinea-pig trachea", "result": 0.1}]}
{"smiles": "Cn1c(=O)c2[nH]cnc2n(C)c1=O", "note": "[Theophylline, theophylline, reference compound]", "values": [{"measurement": "Convulsive activity in acute toxicity studies", "setting": "[2]", "result": "repeatedly shown to occur"}, {"measurement": "Guinea-pig Tracheal Preparation Potency", "setting": "Guinea-pig trachea", "result": 1.0}, {"measurement": "Convulsion test mice i.v., Death", "setting": "[1]; constant rate i.v. infusion", "result": "446.3 ± 9.6", "unit": "mg/kg i.v."}, {"measurement": "Convulsion test mice i.v., number of animals with convulsions / animals tested", "setting": "[1]; [3]", "result": "30/30"}, {"measurement": "Convulsion test mice i.v., number of animals with convulsions / animals tested", "setting": "[1]; constant rate i.v. infusion, type of convulsion as in the effects column, listed as theophylline", "result": "30 out of 30"}, {"measurement": "Convulsion test mice i.v., Effects", "setting": "[1]; [4]", "result": "tonic conv."}, {"measurement": "Convulsion test mice i.v., Effects", "setting": "[1]; toxic symptoms before death, constant rate i.v. infusion, listed as theophylline", "result": "consistently produced tonic convulsions"}]}
